Test results as given in patent US10563197B2, “Use of a combination of Dbait molecule and PARP inhibitors to treat cancer” (INSTITUT CURIE, priority 2015, dated 2020).

How the values were obtained:
Format in all cases: cell-based, human
MDAMB231 = assay: Cell survival, trypan blue counting; conditions: for efficacy of the combination of PARPi with AsiDNA versus calculated additivity: 4.8 μM or 16 μM AsiDNA, PARPi doses giving 80% and 50% survival, 6 days; for IC20 / IC50: Homo sapiens, MDA-MB-231, MDAMB231; for IC20: PARPi dose giving 80% survival; for IC50: PARPi dose resulting in 50% survival
Experimental: Cells were grown according to the supplier's instructions.

[1] = tested on: Breast cancer cell lines MDAMB231; assay: Cell survival with DT01 and PARP inhibitors (Example 1, FIG. 1); conditions: DT01 100 or 333 μg/ml plus Olaparib 0.1, 1 μM or Veliparib 1, 10, 50 μM; 6 days
Experimental: Breast cancer cell lines MDAMB231 were treated with 100 μg/ml (Black, Squares) or 333 μg/ml (Grey, Crosses) of DT01 or no DT01 (Black, Diamond) and exposed to either 0, 0.1 and 1 μM of Olaparib (upper panel) or 1, 10 and 50 μM Veliparib (lower panel). Survival was measured 6 days after treatment using trypan blue to detect living cells. The data are presented as % of the non-treated control.
The human cell lines were grown in complete RPMI (Gibco, Cergy Pontoise, France) supplemented with 10% fetal bovine serum (ATGC, Orléans, France), 1% sodium pyruvate, streptomycin ([…]) and penicillin ([…]) (Invitrogen, Carlsbad, Calif., USA). Cells were maintained at 37° C. under a 5% CO2 atmosphere, at 100% humidity. Treatments were performed by adding nucleotides (DT01 and others) or/and PARP inhibitors at time zero in medium without serum. The medium was changed with fresh medium containing fetal bovine serum 24 hours after beginning of treatment. Cells were let to grow for 4 additional days (5 days after treatment), treated with trypsin and counted for total number of cells. Trypan blue (0.4%) was added for counting the living cells (uncolored) in the population.

3 BC cell lines = assay: Combined treatment survival in BC cell lines (FIG. 6, 7, 12); conditions: AsiDNA 4.8 μM with veliparib 10 and 50 μM; 6 days
Experimental: (§1) Efficacy of AsiDNA (4. 8 μM), olaparib (0, 0.1 and 1 μM) or both was monitored 6 days after treatment by cell counting after trypan blue labeling. (A) Percentage of living cells relative to non-treated condition (NT). (B) Percentage of dead cells. Data are expressed as mean+Sc.D. of at least 2 independent experiments. Dotted lines indicate the calculated cell survivals if additivity between AsiDNA and olaparib.
Efficacy of AsiDNA (4.8 μM), veliparib (0, 10 and 50 μM) or both was monitored 6 days after treatment by trypan blue staining. (A) Percentage of living cells relative to non-treated condition (NT). (B) Percentage of dead cells. Dotted lines indicate the calculated cell survivals if additivity between AsiDNA and veliparib.
The inventors monitored cell survival to combined treatment of 3 BC and 2 non-tumor cell lines with different sensitivities to Ola and AsiDNA alone (FIG. 6; Table 1). […] However, the combination remained more efficient or at least equal to the expected additive effect at all the tested doses. […] In contrast, the normal cells were insensitive to both, the combined and the single treatments with AsiDNA and Ola (FIG. 6; Table 1).

2 non-tumor cell lines = assay: Combined treatment survival in non-tumor cell lines (FIG. 6, 12); conditions: AsiDNA 4.8 μM with veliparib 10 and 50 μM; 6 days
Experimental: as §1
(A) Percentage of living cells relative to non-treated condition (NT). (B) Percentage of dead cells. Dotted lines indicate the calculated cell survivals if additivity between AsiDNA and veliparib.
The inventors monitored cell survival to combined treatment of 3 BC and 2 non-tumor cell lines with different sensitivities to Ola and AsiDNA alone (FIG. 6; Table 1).

`COC1CCN(C(=O)c2cc(Cc3n[nH]c(=O)c4ccccc34)ccc2F)CC1` [AZD2461] was tested, and the “efficacy of the combination of PARPi with AsiDNA versus calculated additivity” value (MDAMB231) was “supra-additive efficacy”, the IC20 (MDAMB231) was 100 nM and the IC50 (MDAMB231) was 500 nM.

In the case of `Cn1ncnc1[C@H]1c2n[nH]c(=O)c3cc(F)cc(c23)N[C@@H]1c1ccc(F)cc1` [BMN673, (8S,9R)-5-fluoro-8-(4-fluorophenyl)-9-(1-methyl-1H-1,2,4-triazol-5-yl)-8,9-dihydro-2H-pyrido[4,3,2de]phthalazin-3(7H)-one], the “efficacy of the combination of PARPi with AsiDNA versus calculated additivity” value (MDAMB231) is reported as “supra-additive efficacy”, the IC20 (MDAMB231) is reported as 0.13 nM and the IC50 (MDAMB231) is reported as 15.4 nM.

For `NC(=O)c1ccc(I)c([N+](=O)[O-])c1` [Iniparib], the “efficacy of the combination of PARPi with AsiDNA versus calculated additivity” value (MDAMB231) was “supra-additive efficacy”, the IC20 (MDAMB231) was 46000 nM and the IC50 (MDAMB231) was 49500 nM.

In the case of `NC(=O)c1cccc2cn(-c3ccc([C@@H]4CCCNC4)cc3)nc12` [Niraparib], the “efficacy of the combination of PARPi with AsiDNA versus calculated additivity” value (MDAMB231) is reported as “supra-additive efficacy”, the IC20 (MDAMB231) is reported as 100 nM and the IC50 (MDAMB231) is reported as 700 nM.

`CNCc1ccc(-c2[nH]c3cc(F)cc4c3c2CCNC4=O)cc1` [Rucaparib, 8-Fluoro-2-{4-[(methylamino)methyl]phenyl}-1,3,4,5-tetrahydro-6H-azepino[5,4,3-cd]indol-6-one] was tested, and the “efficacy of the combination of PARPi with AsiDNA versus calculated additivity” value (MDAMB231) was “supra-additive efficacy”, the IC20 (MDAMB231) was 400 nM and the IC50 (MDAMB231) was 1800 nM.

For `C[C@]1(c2nc3c(C(N)=O)cccc3[nH]2)CCCN1` [Veliparib, 2-((fi)-2-methylpyrrolidin-2-yl)-1W-benzimidazole-4-carboxamide], the “survival to combined treatment with DT01 versus expected added effect of both single treatments” value [1] was “synergic effect”, the “effect of the combined treatment with AsiDNA” value (3 BC cell lines) was “synergistic effect” and the “synergistic effect of the combined treatment with AsiDNA” value (2 non-tumor cell lines) was “absent”.
